{
  "source": "patent US20260137699A1",
  "about": "“OXAZEPINE COMPOUNDS COMPRISING A 6-AZA MOIETY AND USES THEREOF” (Genentech, Inc., priority 2022, published 2026)",
  "format_in_all_cases": "cell-based",
  "key": {"SW620 cells": {"test_system": "SW620 cells", "experiment": "SW620 3D proliferation assay (CellTiter-Glo 3D)", "details": "Homo sapiens, SW-620, 168 h, SW620, 3D culture, 7 days, read-out: SW620 CTG IC50", "description": "(§1) Compound potencies were assessed in proliferation assays conducted with SW620 and HPAC cell lines grown in 3D cultures. Cells were seeded into 96- or 384-well ultra-low attachment plates at 3000 or 1000 cells/well, respectively, in culture medium (RPMI-1640, 10% FBS, 2 mM L-glutamine). The plated cells were centrifuged briefly, allowed to rest for 30 minutes under ambient conditions, and cultured overnight at 37° C./5% C02 to initiate the formation of spheroids. Compound dilutions were prepared across a range of concentrations in DMSO and added to the appropriate wells of the assay plates with a 333-fold dilution into the culture medium. The plates were further incubated for 7 days. The quantity of viable cells was assessed using CellTiter-Glo 3D Cell Viability Assay (Promega). The detection reagent penetrates the spheroids and lyses the cells. The released ATP that was detected with luciferase and a luciferase substrate to generate a luminescent readout. […] The data points were fit to a 4-parameter logistic equation to determine IC50 values."}, "HPAC cells": {"test_system": "HPAC cells", "experiment": "HPAC 3D proliferation assay (CellTiter-Glo 3D)", "details": "Homo sapiens, 168 h, 3D culture, 7 days, read-out: HPAC CTG IC50", "description": "as §1"}, "pERK in SW620 cells": {"test_system": "pERK in SW620 cells", "experiment": "SW620 pERK assay", "details": "Homo sapiens, SW-620, SW620"}, "H1975 cells": {"test_system": "H1975 cells", "experiment": "H1975 CTG proliferation assay", "details": "Homo sapiens, NCI-H1975, H1975"}},
  "data": [
    {"compound": "Cc1nc(N)c(Cl)c(-c2nc3c4c(nc(OC[C@@]56CCCN5C[C@H](F)C6)nc4c2F)N([C@H](C)c2cccnc2N)CCO3)c1C(F)(F)F", "note": "(single isomer, unassigned) [Example 601b]", "values": [
      {"measurement": "IC50", "setting": "SW620 cells", "result": 9.3, "unit": "nM"},
      {"measurement": "IC50", "setting": "HPAC cells", "result": 86.7, "unit": "nM"},
      {"measurement": "IC50", "setting": "pERK in SW620 cells", "result": 15.6, "unit": "nM"},
      {"measurement": "IC50", "setting": "H1975 cells", "result": 80.2, "unit": "nM"}
    ]},
    {"compound": "Cc1nc(N)c(Cl)c(-c2nc3c4c(nc(OC[C@@]56CCCN5C[C@H](F)C6)nc4c2F)N([C@H](C)c2cccnc2N)CCO3)c1C(F)(F)F", "note": "(atropisomer, axis not shown; (aS)) [Example 601a, 4-((R)-10-((R)-1-(2-aminopyridin-3-yl)ethyl)-4-fluoro-2-(((2R,7aS)-2-fluorotetrahydro-1H-pyrrolizin-7a(5H)-yl)methoxy)-9,10-dihydro-8H-7-oxa-1,3,6,10-tetraazacyclohepta[de]naphthalen-5-yl)-3-chloro-6-methyl-5-(trifluoromethyl)pyridin-2-amine]", "values": [
      {"measurement": "IC50", "setting": "HPAC cells", "result": 33.6, "unit": "nM"},
      {"measurement": "IC50", "setting": "pERK in SW620 cells", "result": 2.34, "unit": "nM"}
    ]},
    {"compound": "Cc1c(F)c(N)cc(-c2nc3c4c(nc(OC[C@@H]5CC(F)(F)CN5C)nc4c2F)N([C@H](C)c2nccnc2N)CCO3)c1C(F)(F)F", "note": "[Example 8, 3-((R)-1-(5-(5-amino-4-fluoro-3-methyl-2-(trifluoromethyl)phenyl)-2-(((S)-4,4-difluoro-1-methylpyrrolidin-2-yl)methoxy)-4-fluoro-8,9-dihydro-10H-7-oxa-1,3,6,10-tetraazacyclohepta[de]naphthalen-10-yl)ethyl)pyrazin-2-amine]", "values": [
      {"measurement": "IC50", "setting": "HPAC cells", "result": "≥ 2000", "unit": "nM"}
    ]},
    {"compound": "C[C@H](c1cccnc1N)N1CCOc2nc(-c3cccc4sc(N)nc34)c(F)c3nc(OC[C@@]45CCCN4C[C@H](F)C5)nc1c23", "note": "[Example 24, 4-(10-((R)-1-(2-aminopyridin-3-yl)ethyl)-4-fluoro-2-(((2R,7aS)-2-fluorotetrahydro-1H-pyrrolizin-7a(5H)-yl)methoxy)-9,10-dihydro-8H-7-oxa-1,3,6,10-tetraazacyclohepta[de]naphthalen-5-yl)benzo[d]thiazol-2-amine]", "values": [
      {"measurement": "IC50", "setting": "HPAC cells", "result": "≥ 2000", "unit": "nM"}
    ]}
  ]
}
